The text below walks through data of PubChem BioAssay (NCI).

The structures appear in SMILES notation.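 Growth conditions: 96-well plates. Treatment: test compound, 48 hours, 5 concentrations. Analysis: linear interpolation between bracketing concentrations; unreached endpoints set to highest concentration. GI50 marks 50% less growth. TGI is the concentration that stops growth completely.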 A value given as a limit tells only on which side of the number the result lay.

What all share (experiment): DTP human tumour cell line panel, 48 h
Assay [1] relates to HCT-15 colon.
The subject of assay [2] is HCT-116 colon.
In assay [3] the test system is NCI-H226 lung.
In assay [4] the test system is NCI-H460 lung.
Assay [5] relates to RXF 393 renal.
Assay [6] concerns HOP-62 NSCLC.
For assay [7], the system named is HL-60(TB) leukemia.
Assay [8] has as its system OVCAR-5 ovarian.
Assay [9] has as its system CCRF-CEM leukemia.
Assay [10] relates to SR leukemia.

In the case of `O=C1CCC(=Nc2ccc(Cl)cc2)N1C(=O)COc1ccc(OCC(=O)N2C(=O)CSC2=Nc2ccc(Cl)cc2)cc1`, the TGI in assay [1], in assay [2], in assay [3], in assay [4], in assay [5] and in assay [6] was more than 100 µM throughout. Besides, the TGI in assay [7] and in assay [8] was more than 100 µM in each case.
As to `Cc1cc2c(C)cc(=O)[nH]c2cc1N`, the TGI in assay [1], in assay [2], in [3], in assay [4], in assay [9] and in assay [5] was more than 100 µM throughout. Besides, the TGI in assay [6], in [10] and in assay [8] was more than 100 µM throughout.
As for `Cc1ccc(S(=O)(=O)Oc2cc(N)c3c(n2)CCC3)cc1`, the concentration for total growth inhibition (TGI) in [1], in [2], in assay [3], in assay [4], in [9] and in assay [5] was more than 100 µM throughout. Further, the TGI in [6], in [7] and in assay [8] was more than 100 µM in each case.
Regarding `COc1ccc(N[C@H](CSc2ccc(C)cc2)c2ccc(F)cc2)cc1`, the TGI in [1], in assay [2], in assay [4], in [9], in assay [5] and in assay [6] was more than 100 µM in each case. Further, the concentration for total growth inhibition (TGI) in assay [10] and in assay [8] was more than 100 µM throughout.
Regarding `O=c1cc(/C=C/c2ccc(O)c(O)c2)oc(/C=C/c2ccc(O)c(O)c2)c1`, the TGI in assay [1] stood at 27.6 µM; in assay [2], 15.5 µM; in assay [3] it was 28.1 µM; in assay [4] it was 21.2 µM; in assay [9], 7.74 µM; in assay [5], 9.12 µM. For the same compound, the total growth inhibition concentration (TGI) came to 20.2 µM in assay [6], 8.52 µM in assay [10] and 44.8 µM in [8].
On to `O=C(O)C1CC(c2ccc(F)cc2)=Nc2ccc(F)cc2S1` (centres undefined), for which the TGI in assay [1], in assay [2], in [3], in assay [4], in assay [9] and in [5] was more than 100 µM in each case. In addition, the TGI in assay [7] and in [8] was more than 100 µM each time.
As for `O=C1/C(=C/c2ccccc2S)N=C(c2ccccc2)N1c1nc2ccc(Sc3ccccc3)cc2[nH]1`, the concentration for total growth inhibition (TGI) in [1] was more than 100 µM; in assay [2], more than 100 µM; in [4] it was 57 µM; in assay [9] it was more than 100 µM; in [5], more than 100 µM; in assay [6], more than 100 µM. Moreover, the TGI in assay [7] is 52.1 µM; in assay [8], more than 100 µM.
For the compound `CCCCOC(C)(C)/C=C/C(O)[C@](C)(O)[C@H]1[C@H](O)C[C@@]2(C)[C@@H]3CCc4c(cc(OC5OC(CO)C(O)C(O)C5O)c(O)c4C)C3(C)C(=O)C[C@]12C` (some centres undefined), the TGI in assay [1], in assay [2], in assay [3], in assay [4], in assay [9] and in assay [5] was more than 100 µM throughout. In addition, the TGI in assay [6], in assay [10] and in assay [8] was more than 100 µM each time.
For `CCC12C[N+]3([O-])CCc4c([nH]c5ccccc45)C(C(=O)OC)(c4cc5c(cc4OC)N(C)C4C(O)(C(=O)OC)C(OC(C)=O)C6(CC)C=CCN7CCC54C76)CC(C3)C1O2` (centres undefined), the total growth inhibition concentration (TGI) in assay [1] is 24.8 µM; in [2], 11.6 µM; in [4], 43.5 µM; in [9], 6.87 µM; in assay [5] it was 4.65 µM; in assay [6], more than 100 µM. The compound also gave a TGI in [8] of 33.3 µM.
On to `c1ccc2c(c1)[nH]c1nc3cc(-c4ccc5nc6c(nc5c4)[nH]c4ccccc46)ccc3nc12`, for which the TGI in assay [1] was more than 32.3 µM; in assay [2], more than 100 µM; in assay [3], more than 100 µM; in assay [4] it was more than 100 µM; in assay [9], more than 100 µM; in assay [5] it was more than 100 µM. In addition, the concentration for total growth inhibition (TGI) in [6], in assay [7] and in [8] was more than 100 µM throughout.
As to `CCCCn1c2c(n(CCCC)c1=S)-c1c(n(CCCC)c(=S)n1CCCC)S[Se][Se]S2`, the TGI in assay [1] was 15.9 µM; in assay [2], 16.9 µM; in [3] it was 49.4 µM; in assay [4] it was more than 80 µM; in assay [9] it was more than 46.6 µM; in assay [5] it was 25.4 µM. Moreover, the figures for the TGI in [6], in assay [10] and in [8] were 35.1 µM, more than 100 µM and 6.72 µM, respectively.
As to `COc1cc(C2c3cc4c(cc3OC(NN=C(C)C)C2C)OCO4)cc(OC)c1O` (centres undefined), the TGI was more than 100 µM in assay [1]; more than 100 µM in assay [2]; more than 100 µM in assay [3]; more than 100 µM in assay [5]; 16.5 µM in [10]; more than 100 µM in assay [8].
In the case of `CCCCN1CCN(c2ccc3nc(-c4ccc5nc(-c6ccc(C(F)(F)F)cc6)[nH]c5c4)[nH]c3c2)CC1`, the GI50 is 0.303 µM in assay [1]; 0.348 µM in assay [2]; 0.64 µM in assay [4]; 0.289 µM in [9]; 1.13 µM in assay [5]; 1.54 µM in assay [6]. Moreover, the results for the GI50 in assay [7] and in assay [8] were 0.923 µM and 1.87 µM, respectively. For the same compound, the TGI in assay [1] came out at 1.1 µM; in assay [2], 1.27 µM; in assay [4], 1.33 µM; in assay [9], 0.945 µM; in assay [5], 2.49 µM; in assay [6], 2.98 µM. Besides, the TGI in assay [7] came to 2.63 µM; in [8], 3.32 µM.
For the compound `COc1cc(OCc2ccc3oc(=O)c(-c4ccccc4)nc3c2)cc(OC)c1OC`, the TGI in [1], in assay [2], in assay [3], in assay [4], in assay [9] and in [5] was more than 100 µM throughout. The TGI in assay [6], in assay [10] and in [8] was more than 100 µM throughout.
